# Experimental data as given in patent US10125121B2, “FYN kinase inhibitors” (ROTTAPHARM BIOTECH S.R.L., priority 2015, dated 2018).
# Molecular target: active FYN (human recombinant, 62.7 kDa) (Homo sapiens, UniProt P06241)
# Assay: In vitro kinase assay (Z′-LYTE FRET)
# Assay type: biochemical
# Conditions: read-out: IC50(nM) FYN INHIBITION
# Protocol: Assays to determine the kinase inhibitory activity of compounds were performed using an automatic liquid handling device (Microlab STAR Hamilton) and Z′-LYTE™ Kinase Assay Platform, a Fluorescence Resonance Energy Transfer (FRET)-based assay platform compatible with high-throughput screening (HTS) applications. The assay employs a fluorescence-based, coupled-enzyme format and utilizes the differential sensitivity of phosphorylated and non-phosphorylated peptides to proteolytic cleavage.
# All reagents were diluted in reaction buffer and the kinase reaction was carried out in a total volume of 10 μl, for 60 minutes at 25° C. The 0% Phosphorylation (i.e. no ATP) and 100% Phosphorylation (i.e. synthetically phosphorylated peptide supplied) Assay Controls, included in each plate, allowed to calculate the percent phosphorylation achieved in the specific reaction well. The 0% Inhibition and 0% Phosphorylation (i.e. 100% Inhibition) Controls define the dynamic range in the screen. At the end of incubation, a secondary reaction (the Development Reaction) started by adding 5 μl of Development Reagent, containing a site-specific protease that recognizes and cleaves non-phosphorylated peptides, and was interrupted after 60 minutes with 5 μl/sample of Stop Reagent.
# The compounds were tested in a range of concentrations 10^−6-10^−9 M.
# Results are expressed as percentage of inhibition and the IC50 values were calculated by non-linear curve fitting using GraphPad™ Prism software.
# Chain of active FYN (human recombinant, 62.7 kDa) (P06241 whole entry): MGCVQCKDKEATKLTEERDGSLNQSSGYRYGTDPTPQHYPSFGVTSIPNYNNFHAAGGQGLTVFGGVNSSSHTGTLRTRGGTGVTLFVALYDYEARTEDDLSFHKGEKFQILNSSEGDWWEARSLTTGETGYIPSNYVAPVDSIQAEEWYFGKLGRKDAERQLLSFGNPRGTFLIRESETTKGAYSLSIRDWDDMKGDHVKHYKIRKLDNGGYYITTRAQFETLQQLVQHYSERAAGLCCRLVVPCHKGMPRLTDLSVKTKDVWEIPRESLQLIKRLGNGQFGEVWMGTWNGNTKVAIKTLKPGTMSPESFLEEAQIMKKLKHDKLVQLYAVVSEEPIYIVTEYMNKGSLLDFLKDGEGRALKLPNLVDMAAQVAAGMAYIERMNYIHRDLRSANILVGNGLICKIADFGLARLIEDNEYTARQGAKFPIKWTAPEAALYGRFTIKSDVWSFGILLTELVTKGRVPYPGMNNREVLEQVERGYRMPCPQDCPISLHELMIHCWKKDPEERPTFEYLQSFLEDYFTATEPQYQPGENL
row,SMILES,IC50 [nM]
1,"O=C(Nc1ccc(CN2CCN(c3nccc(Nc4cc(C5CC5)[nH]n4)n3)CC2)nn1)c1ccccc1C(F)(F)F [Compound 42, N-(6-((4-(4-((5-cyclopropyl-1H-pyrazol-3-yl)amino)pyrimidin-2-yl)piperazin-1-yl)methyl)pyridazin-3-yl)-2-(trifluoromethyl)benzamide]",663
2,"COc1ncccc1C(=O)Nc1ccc(CN2CCN(c3nccc(Nc4cc(C5CC5)[nH]n4)n3)CC2)cc1 [Compound 28, N-(4-((4-(4-((5-cyclopropyl-1H-pyrazol-3-yl)amino)pyrimidin-2-yl)piperazin-1-yl)methyl)phenyl)-2-methoxy-nicotinamide]",237
3,"O=C(Nc1cccc(C(F)(F)F)c1)c1ccc(CN2CCN(c3nccc(Nc4cc(C5CC5)[nH]n4)n3)CC2)cc1 [Compound 38, 4-((4-(4-((5-cyclopropyl-1H-pyrazol-3-yl)amino)pyrimidin-2-yl)piperazin-1-yl)methyl)-N-(3-(trifluoromethyl)-phenyl)benzamide]",> 1000
4,"O=S(=O)(Nc1ccc(CN2CCN(c3nccc(Nc4cc(C5CC5)[nH]n4)n3)CC2)cc1)c1ccccc1F [Compound 40, N-(4-((4-(4-((5-cyclopropyl-1H-pyrazol-3-yl)amino)pyrimidin-2-yl)piperazin-1-yl)methyl)phenyl)-2-fluorobenzene-sulfonamide]",280
5,"Cn1ccnc1C(=O)Nc1ccc(CN2CCN(c3nccc(Nc4cc(C5CC5)[nH]n4)n3)CC2)cc1 [Compound 34, N-(4-((4-(4-((5-cyclopropyl-1H-pyrazol-3-yl)amino)pyrimidin-2-yl)piperazin-1-yl)methyl)phenyl)-1-methyl-1H-imidazole-2-carboxamide]",1450
6,"CCc1cc(NC(=O)c2ccccc2F)ccc1CN1CCN(c2nc(C)cc(Nc3cc(C4CC4)[nH]n3)n2)CC1 [Compound 19, N-(4-((4-(4-((5-cyclopropyl-1H-pyrazol-3-yl)amino)-6-methylpyrimidin-2-yl)piperazin-1-yl)methyl)-3-ethylphenyl)-2-fluorobenzamide]",1020
7,"O=C(Nc1ccc(OC(F)(F)F)cc1)c1ccc(CN2CCN(c3nccc(Nc4cc(C5CC5)[nH]n4)n3)CC2)cc1 [Compound 37, 4-((4-(4-((5-cyclopropyl-1H-pyrazol-3-yl)amino)pyrimidin-2-yl)piperazin-1-yl)methyl)-N-(4-(trifluoromethoxy)phenyl)benzamide]",> 1000
8,"C[C@H]1CN(c2nccc(Nc3cc(C4CC4)[nH]n3)n2)CCN1Cc1ccc(NC(=O)c2cccnc2C(F)(F)F)cc1 [Compound 31, (S)-N-(4-((4-(4-((5-cyclopropyl-1H-pyrazol-3-yl)amino)pyrimidin-2-yl)-2-methyl-piperazin-1-yl)methyl)phenyl)-2-(trifluoromethyl)nicotinamide]",667
9,"O=C(Nc1ccc(CN2CCN(c3nccc(Nc4cc(C5CC5)[nH]n4)n3)CC2)cc1)c1ccc(C(F)(F)F)cc1 [Compound 10, N-(4-((4-(4-((5-cyclopropyl-1H-pyrazol-3-yl)amino)pyrimidin-2-yl)piperazin-1-yl)methyl)phenyl)-4-(trifluoromethyl)benzamide]",950
10,"COc1ccnc(Nc2ccnc(N3CCN(Cc4ccc(NC(=O)c5ccccc5C(F)(F)F)cc4)CC3)n2)c1 [Compound 45, N-(4-((4-(4-((4-methoxypyridin-2-yl)amino)pyrimidin-2-yl)piperazin-1-yl)methyl)phenyl)-2-(trifluoromethyl)benzamide]",441
11,"O=C(Nc1ccc(CN2CCN(c3nccc(Nc4cc(C5CC5)[nH]n4)n3)CC2)cc1)c1cccc(C(F)(F)F)c1 [Compound 9, N-(4-((4-(4-((5-cyclopropyl-1H-pyrazol-3-yl)amino)pyrimidin-2-yl)piperazin-1-yl)methyl)phenyl)-3-(trifluoromethyl)benzamide]",> 1000
12,"O=C(Nc1ccc(CN2CCN(c3nccc(Nc4cc(C5CC5)[nH]n4)n3)CC2)cc1)c1ccccn1 [Compound 24, N-(4-((4-(4-((5-cyclopropyl-1H-pyrazol-3-yl)amino)pyrimidin-2-yl)piperazin-1-yl)methyl)phenyl)picolinamide]",1100
13,"O=C(Nc1ccc(CN2CCN(c3nccc(Nc4cc(C5CC5)[nH]n4)n3)CC2)cc1)c1cnccn1 [Compound 35, N-(4-((4-(4-((5-cyclopropyl-1H-pyrazol-3-yl)amino)pyrimidin-2-yl)piperazin-1-yl)methyl)phenyl)pyrazine-2-carboxamide]",282

# Now those with a lower IC50, led by results:
row,IC50 [nM],SMILES
1,74,"Cn1cc(C(=O)Nc2ccc(CN3CCN(c4nccc(Nc5cc(C6CC6)[nH]n5)n4)CC3)cc2)c(C(F)(F)F)n1 [Compound 33, N-(4-((4-(4-((5-cyclopropyl-1H-pyrazol-3-yl)amino)pyrimidin-2-yl)piperazin-1-yl)-methyl)phenyl)-1-methyl-3-(trifluoromethyl)-1H-pyrazole-4-carboxamide]"
2,96,"O=C(Nc1ccc(CN2CCN(c3nccc(Nc4cc(C5CC5)[nH]n4)n3)CC2)cc1)c1ccccc1 [Compound 1, N-(4-((4-(4-((5-cyclopropyl-1H-pyrazol-3-yl)amino)pyrimidin-2-yl)piperazin-1-yl)methyl)phenyl)benzamide]"
3,37,"CC1CCCN1C(=O)Nc1ccc(CN2CCN(c3nccc(Nc4cc(C5CC5)[nH]n4)n3)CC2)cc1 (stereo not drawn) [Compound 48, N-(4-((4-(4-((5-cyclopropyl-1H-pyrazol-3-yl)amino)pyrimidin-2-yl)piperazin-1-yl)methyl)phenyl)-2-methylpyrrolidine-1-carboxamide]"
4,29,"Cc1cc(Nc2cc(C3CC3)n[nH]2)nc(N2CCN(Cc3ccc(NC(=O)c4ccccc4C(F)(F)F)cc3)CC2)n1 [Compound 46, N-(4-((4-(4-((5-cyclopropyl-1H-pyrazol-3-yl)amino)-6-methylpyrimidin-2-yl)piperazin-1-yl)methyl)phenyl)-2-(trifluoromethyl)benzamide]"
5,86,"Cc1nc(C(=O)Nc2ccc(CN3CCN(c4nccc(Nc5cc(C6CC6)[nH]n5)n4)CC3)cc2)co1 [Compound 20, N-(4-((4-(4-((5-cyclopropyl-1H-pyrazol-3-yl)amino)pyrimidin-2-yl)piperazin-1-yl)methyl)phenyl)-2-methyloxazole-4-carboxamide]"
6,69,"O=C(Nc1ccc(CN2CCN(c3nccc(Nc4cc(C5CC5)[nH]n4)n3)CC2)cc1)NC1CCCC1 [Compound 49, 1-cyclopentyl-3-(4-((4-(4-((3-cyclopropyl-1H-pyrazol-5-yl)amino)pyrimidin-2-yl)piperazin-1-yl)methyl)phenyl)urea]"
7,23,"O=C(Nc1ccc(CN2CCN(c3nccc(Nc4cc(C5CC5)[nH]n4)n3)CC2)cc1)c1ccccc1Cl [Compound 5, 2-chloro-N-(4-((4-(4-((5-cyclopropyl-1H-pyrazol-3-yl)amino)pyrimidin-2-yl)piperazin-1-yl)methyl)phenyl)benzamide]"
8,220,"COc1cc(C)ccc1C(=O)Nc1ccc(CN2CCN(c3nccc(Nc4cc(C5CC5)[nH]n4)n3)CC2)cc1 [Compound 15, N-(4-((4-(4-((5-cyclopropyl-1H-pyrazol-3-yl)amino)pyrimidin-2-yl)piperazin-1-yl)methyl)phenyl)-2-methoxy-4-methyl benzamide]"
9,70,"O=C(Nc1ccc(CN2CCN(c3nccc(Nc4cc(C5CC5)[nH]n4)n3)CC2)cc1)c1ccccc1F [Compound 3, N-(4-((4-(4-((5-cyclopropyl-1H-pyrazol-3-yl)amino)pyrimidin-2-yl)piperazin-1-yl)methyl)phenyl)-2-fluorobenzamide]"
10,89,"CC(C)c1ccccc1C(=O)Nc1ccc(CN2CCN(c3nccc(Nc4cc(C5CC5)[nH]n4)n3)CC2)cc1 [Compound 6, N-(4-((4-(4-((5-cyclopropyl-1H-pyrazol-3-yl)amino)pyrimidin-2-yl)piperazin-1-yl)methyl)phenyl)-2-isopropylbenzamide]"
11,41,"Cc1cc(Nc2ccnc(N3CCN(Cc4ccc(NC(=O)c5ccccc5C(F)(F)F)cc4)CC3)n2)[nH]n1 [Compound 47, N-(4-((4-(4-((3-methyl-1H-pyrazol-5-yl)amino)pyrimidin-2-yl)piperazin-1-yl)methyl)phenyl)-2-(trifluoromethyl)benzamide]"
12,180,"C[C@@H]1CN(c2nccc(Nc3cc(C4CC4)[nH]n3)n2)CCN1Cc1ccc(NC(=O)c2cccnc2C(F)(F)F)cc1 [Compound 30, (R)-N-(4-((4-(4-((5-cyclopropyl-1H-pyrazol-3-yl)amino)pyrimidin-2-yl)-2-methylpiperazin-1-yl)methyl)phenyl)-2-(trifluoromethyl)nicotinamide]"
13,105,"Cc1cccnc1C(=O)Nc1ccc(CN2CCN(c3nccc(Nc4cc(C5CC5)[nH]n4)n3)CC2)cc1 [Compound 25, N-(4-((4-(4-((5-cyclopropyl-1H-pyrazol-3-yl)amino)pyrimidin-2-yl)piperazin-1-yl)methyl)phenyl)-3-methyl-picolinamide]"
14,122,"CS(=O)(=O)c1cccc(C(=O)Nc2ccc(CN3CCN(c4nccc(Nc5cc(C6CC6)[nH]n5)n4)CC3)cc2)c1 [Compound 16, N-(4-((4-(4-((5-cyclopropyl-1H-pyrazol-3-yl)amino)pyrimidin-2-yl)piperazin-1-yl)methyl)phenyl)-3-(methylsulfonyl)benzamide]"
